The values that follow come from the supplement of paper PMC11451515.

Holding throughout (assay): AUC of viability dose-response curve (% viability x log10 dose units); higher = less sensitive
Common to all, as to conditions: 48 h

One assay deals with P12-Ichikawa. The essentials: (§1)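 Area under the curve was integrated by trapezoidal rule from a log-logistic fit of normalised viability, with curves exceeding full viability scaled and quality-control failures removed. The fit had four parameters over log10 doses. Viability came from CellTiter-Glo One luminescence, normalised per plate to DMSO and cell-free wells, after leukemia cells adapted to each medium (500 or 1000 cells/well, 1536-well plates) were exposed to library compounds in DMSO for 48 h at 37°C. The 11 threefold doses ran from 47 μM to 0.79 nM.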

Another assay has as its system NOMO1. The essentials: as §1
A further assay relates to SEM cells. In short, it runs like this: as §1
Setting [1] is: RPMI 5 mM glucose + 10% dialyzed FBS.

For the compound `CN(CC(=O)N(Cc1ccc(C2CCCCC2)cc1)c1ccc(C(=O)O)c(O)c1)[S+](=O)([O-])c1c(F)c(F)c(F)c(F)c1F`, the “AUC of viability dose-response curve” value in the assay on P12-Ichikawa (HPLM + 10% dialyzed FBS) worked out at 440; in the assay with P12-Ichikawa (RPMI 5 mM glucose + 10% FBS), 462; with P12-Ichikawa (setting [1]) it was 421; with NOMO1 (HPLM + 10% dialyzed FBS), 447; with NOMO1 (RPMI 5 mM glucose + 10% FBS), 408; with NOMO1 (setting [1]), 440. In addition, the “AUC of viability dose-response curve” value came to 432 in the assay with SEM cells (HPLM + 10% dialyzed FBS), 404 in the assay on SEM cells (RPMI 5 mM glucose + 10% FBS) and 405 with SEM cells (setting [1]).

As for `CCCCN1CCC(CNC(=O)c2c3n(c4ccccc24)CCCO3)CC1`, the “AUC of viability dose-response curve” value in the assay with P12-Ichikawa (HPLM + 10% dialyzed FBS) was 461; with P12-Ichikawa (RPMI 5 mM glucose + 10% FBS), 459; in the assay with P12-Ichikawa (setting [1]) it was 465; in the assay on NOMO1 (HPLM + 10% dialyzed FBS) it was 474; with NOMO1 (RPMI 5 mM glucose + 10% FBS), 467; in the assay with NOMO1 (setting [1]) it was 470. Further, the entries for the “AUC of viability dose-response curve” value in the assay on SEM cells (HPLM + 10% dialyzed FBS), in the assay on SEM cells (RPMI 5 mM glucose + 10% FBS) and in the assay on SEM cells (setting [1]) were 431, 474 and 462, respectively.

Regarding `N#Cc1c(N(CC(=O)[O-])CC(=O)[O-])sc(C(=O)[O-])c1CC(=O)[O-].O.O.O.O.O.O.O.[Sr+2].[Sr+2]`, the “AUC of viability dose-response curve” value in the assay with P12-Ichikawa (HPLM + 10% dialyzed FBS) came out at 463; in the assay on P12-Ichikawa (RPMI 5 mM glucose + 10% FBS), 458; in the assay with P12-Ichikawa (setting [1]), 456; in the assay with NOMO1 (HPLM + 10% dialyzed FBS), 467; with NOMO1 (RPMI 5 mM glucose + 10% FBS), 472; with NOMO1 (setting [1]) it was 472. Besides, the “AUC of viability dose-response curve” value with SEM cells (HPLM + 10% dialyzed FBS) was 462; in the assay on SEM cells (RPMI 5 mM glucose + 10% FBS), 467; in the assay on SEM cells (setting [1]), 449.

On to `CCCCCN(C)CCC(O)(P(=O)([O-])O)P(=O)(O)O`, for which the “AUC of viability dose-response curve” value amounted to 447 in the assay with P12-Ichikawa (HPLM + 10% dialyzed FBS); 426 with P12-Ichikawa (RPMI 5 mM glucose + 10% FBS); 409 in the assay on P12-Ichikawa (setting [1]); 421 with NOMO1 (HPLM + 10% dialyzed FBS); 439 in the assay on NOMO1 (RPMI 5 mM glucose + 10% FBS); 423 in the assay with NOMO1 (setting [1]). Further, the “AUC of viability dose-response curve” value was 357 in the assay with SEM cells (HPLM + 10% dialyzed FBS), 384 with SEM cells (RPMI 5 mM glucose + 10% FBS) and 367 with SEM cells (setting [1]).

Regarding `CC(O)(C[S+](=O)([O-])c1ccc(F)cc1)C(=O)Nc1ccc(C#N)c(C(F)(F)F)c1` (centres undefined), the “AUC of viability dose-response curve” value with P12-Ichikawa (HPLM + 10% dialyzed FBS) is 450; with P12-Ichikawa (RPMI 5 mM glucose + 10% FBS), 430; in the assay on P12-Ichikawa (setting [1]), 413; in the assay with NOMO1 (HPLM + 10% dialyzed FBS) it was 439; with NOMO1 (RPMI 5 mM glucose + 10% FBS), 422; in the assay with NOMO1 (setting [1]), 436. For the same compound, the results for the “AUC of viability dose-response curve” value in the assay with SEM cells (HPLM + 10% dialyzed FBS), in the assay with SEM cells (RPMI 5 mM glucose + 10% FBS) and in the assay on SEM cells (setting [1]) were 428, 426 and 424, respectively.

`C[C@H](NC(=O)[C@@H](O)c1cc(F)cc(F)c1)C(=O)N[C@@H]1C(=O)N(C)c2ccccc2-c2ccccc21`: the “AUC of viability dose-response curve” value in the assay with P12-Ichikawa (HPLM + 10% dialyzed FBS) came to 432; in the assay on P12-Ichikawa (RPMI 5 mM glucose + 10% FBS), 441; in the assay with P12-Ichikawa (setting [1]), 437; in the assay with NOMO1 (HPLM + 10% dialyzed FBS) it was 402; with NOMO1 (RPMI 5 mM glucose + 10% FBS), 450; in the assay with NOMO1 (setting [1]), 432. Moreover, the “AUC of viability dose-response curve” value in the assay on SEM cells (HPLM + 10% dialyzed FBS) came to 440; with SEM cells (RPMI 5 mM glucose + 10% FBS), 453; with SEM cells (setting [1]) it was 417.

Take `c1cc2c(cc1[C@H]1OC[C@H]3[C@@H]1CO[C@@H]3c1ccc3c(c1)OCO3)OCO2`: the “AUC of viability dose-response curve” value with P12-Ichikawa (HPLM + 10% dialyzed FBS) amounted to 470; in the assay on P12-Ichikawa (RPMI 5 mM glucose + 10% FBS), 452; with P12-Ichikawa (setting [1]), 473; with NOMO1 (HPLM + 10% dialyzed FBS), 467; in the assay on NOMO1 (RPMI 5 mM glucose + 10% FBS), 462; in the assay on NOMO1 (setting [1]) it was 456. For the same compound, the figures for the “AUC of viability dose-response curve” value in the assay on SEM cells (HPLM + 10% dialyzed FBS), in the assay with SEM cells (RPMI 5 mM glucose + 10% FBS) and in the assay on SEM cells (setting [1]) were 468, 454 and 455, respectively.

Consider `CCOc1cc(C(=O)Nc2ccc(Cl)c(-c3nc4ccccc4[nH]3)c2)cc(OCC)c1OCC`, for which the “AUC of viability dose-response curve” value came to 431 with P12-Ichikawa (HPLM + 10% dialyzed FBS); 418 in the assay with P12-Ichikawa (RPMI 5 mM glucose + 10% FBS); 387 with P12-Ichikawa (setting [1]); 475 in the assay on NOMO1 (HPLM + 10% dialyzed FBS); 410 in the assay on NOMO1 (RPMI 5 mM glucose + 10% FBS); 431 with NOMO1 (setting [1]). In addition, the “AUC of viability dose-response curve” value in the assay on SEM cells (HPLM + 10% dialyzed FBS) worked out at 378; in the assay on SEM cells (RPMI 5 mM glucose + 10% FBS), 392; in the assay with SEM cells (setting [1]), 371.

On to `O=C(Nc1ccccc1)Nc1ccc(-c2ccc(C(=O)[C@@H]3CCC[C@H]3C(=O)O)cc2)cc1`, for which the “AUC of viability dose-response curve” value in the assay on P12-Ichikawa (HPLM + 10% dialyzed FBS) is 444; in the assay on P12-Ichikawa (RPMI 5 mM glucose + 10% FBS) it was 444; in the assay on P12-Ichikawa (setting [1]), 443; in the assay with NOMO1 (HPLM + 10% dialyzed FBS) it was 406; with NOMO1 (RPMI 5 mM glucose + 10% FBS) it was 441; with NOMO1 (setting [1]) it was 409. The figures for the “AUC of viability dose-response curve” value in the assay on SEM cells (HPLM + 10% dialyzed FBS), in the assay with SEM cells (RPMI 5 mM glucose + 10% FBS) and in the assay with SEM cells (setting [1]) were 476, 467 and 468, respectively.

Consider `CCOC(=O)c1c(CSc2ccccc2)n(C)c2cc(Br)c(O)c(CN(C)C)c12`, for which the “AUC of viability dose-response curve” value in the assay on P12-Ichikawa (HPLM + 10% dialyzed FBS) is 464; in the assay with P12-Ichikawa (RPMI 5 mM glucose + 10% FBS), 461; in the assay with P12-Ichikawa (setting [1]), 464; with NOMO1 (HPLM + 10% dialyzed FBS), 471; in the assay on NOMO1 (RPMI 5 mM glucose + 10% FBS), 461; with NOMO1 (setting [1]), 450. Further, the “AUC of viability dose-response curve” value with SEM cells (HPLM + 10% dialyzed FBS) turned out to be 463; in the assay with SEM cells (RPMI 5 mM glucose + 10% FBS), 459; in the assay with SEM cells (setting [1]), 469.

For the compound `COc1cccc(OC)c1-c1cc(C(=O)NC2(C(=O)O)C3CC4CC(C3)CC2C4)nn1-c1ccnc2cc(Cl)ccc12` (centres undefined), the “AUC of viability dose-response curve” value turned out to be 456 in the assay on P12-Ichikawa (HPLM + 10% dialyzed FBS); 472 in the assay on P12-Ichikawa (RPMI 5 mM glucose + 10% FBS); 454 in the assay with P12-Ichikawa (setting [1]); 447 in the assay with NOMO1 (HPLM + 10% dialyzed FBS); 473 with NOMO1 (RPMI 5 mM glucose + 10% FBS); 455 in the assay on NOMO1 (setting [1]). For the same compound, the “AUC of viability dose-response curve” value is 467 in the assay with SEM cells (HPLM + 10% dialyzed FBS), 467 with SEM cells (RPMI 5 mM glucose + 10% FBS) and 461 with SEM cells (setting [1]).

For the compound `O=C(O)c1cccnc1`, the “AUC of viability dose-response curve” value in the assay on P12-Ichikawa (HPLM + 10% dialyzed FBS) was determined as 408; with P12-Ichikawa (RPMI 5 mM glucose + 10% FBS), 426; in the assay on P12-Ichikawa (setting [1]), 403; with NOMO1 (HPLM + 10% dialyzed FBS), 369; with NOMO1 (RPMI 5 mM glucose + 10% FBS), 402; in the assay with NOMO1 (setting [1]), 385. Also, the results for the “AUC of viability dose-response curve” value in the assay with SEM cells (HPLM + 10% dialyzed FBS), in the assay on SEM cells (RPMI 5 mM glucose + 10% FBS) and in the assay on SEM cells (setting [1]) were 330, 360 and 356, respectively.

For `c1coc(CNc2ncnc3nc[nH]c23)c1`, the “AUC of viability dose-response curve” value is 437 with P12-Ichikawa (HPLM + 10% dialyzed FBS); 464 in the assay with P12-Ichikawa (RPMI 5 mM glucose + 10% FBS); 467 in the assay with P12-Ichikawa (setting [1]); 455 in the assay with NOMO1 (HPLM + 10% dialyzed FBS); 461 in the assay with NOMO1 (RPMI 5 mM glucose + 10% FBS); 445 with NOMO1 (setting [1]). For the same compound, the “AUC of viability dose-response curve” value with SEM cells (HPLM + 10% dialyzed FBS) amounted to 460; in the assay with SEM cells (RPMI 5 mM glucose + 10% FBS) it was 469; with SEM cells (setting [1]) it was 473.

Turning to `Cc1nc(-c2ccc(-c3ccc(C(=O)N4CCc5cc6c(cc54)C4(CCN(C)CC4)CO6)cc3)c(C)c2)no1`, the “AUC of viability dose-response curve” value came to 464 with P12-Ichikawa (HPLM + 10% dialyzed FBS); 460 with P12-Ichikawa (RPMI 5 mM glucose + 10% FBS); 447 with P12-Ichikawa (setting [1]); 454 in the assay with NOMO1 (HPLM + 10% dialyzed FBS); 477 with NOMO1 (RPMI 5 mM glucose + 10% FBS); 449 in the assay with NOMO1 (setting [1]). The entries for the “AUC of viability dose-response curve” value with SEM cells (HPLM + 10% dialyzed FBS), with SEM cells (RPMI 5 mM glucose + 10% FBS) and in the assay with SEM cells (setting [1]) were 420, 467 and 439, respectively.

On to `C[S+](=O)([O-])N1CCN(Cc2cc3nc(-c4cccc5[nH]ncc45)nc(N4CCOCC4)c3s2)CC1`, for which the “AUC of viability dose-response curve” value with P12-Ichikawa (HPLM + 10% dialyzed FBS) was 428; with P12-Ichikawa (RPMI 5 mM glucose + 10% FBS), 420; with P12-Ichikawa (setting [1]), 414; in the assay with NOMO1 (HPLM + 10% dialyzed FBS), 381; in the assay on NOMO1 (RPMI 5 mM glucose + 10% FBS) it was 421; with NOMO1 (setting [1]) it was 384. The “AUC of viability dose-response curve” value with SEM cells (HPLM + 10% dialyzed FBS) came out at 356; with SEM cells (RPMI 5 mM glucose + 10% FBS) it was 348; with SEM cells (setting [1]), 348.

`Cc1nnc(C(C)C)n1[C@@H]1C[C@H]2CC[C@@H](C1)N2CC[C@H](NC(=O)C1CCC(F)(F)CC1)c1ccccc1`: the “AUC of viability dose-response curve” value in the assay with P12-Ichikawa (HPLM + 10% dialyzed FBS) was found to be 460; in the assay on P12-Ichikawa (RPMI 5 mM glucose + 10% FBS), 454; in the assay with P12-Ichikawa (setting [1]), 437; with NOMO1 (HPLM + 10% dialyzed FBS), 445; in the assay with NOMO1 (RPMI 5 mM glucose + 10% FBS), 411; in the assay with NOMO1 (setting [1]), 394. For the same compound, the “AUC of viability dose-response curve” value came out at 425 in the assay with SEM cells (HPLM + 10% dialyzed FBS), 379 with SEM cells (RPMI 5 mM glucose + 10% FBS) and 419 with SEM cells (setting [1]).
